Experimental data: article PMC3292552, “Post-Translational Regulation and Trafficking of the Granulin-Containing Protease RD21 of Arabidopsis thaliana” (PLoS ONE, 2012)

Key:
[1] = biological target: T1, RD21 (Arabidopsis thaliana, UniProt P43297, C161A); test: competition of DCG-04 labelling; format: biochemical; details: 20 µM E-64 preincubation, 0.2 µM DCG-04, pH 6; catalytic Cys absent; leaf extract
T1 construct: gene RD21A; full-length preproprotein agroinfiltrated in Nicotiana benthamiana, two (pRH628) or three (pRH629) extra C-terminal Ser; crude leaf extract; processed in planta to iRD21/mRD21; mRD21 N-termini DELPE, LPE, GDELPE; also endogenous in Arabidopsis leaf extract

[2] = biological target: T2, RD21 (Arabidopsis thaliana, UniProt P43297); test: competition of DCG-04 labelling; protection of rubisco from degradation; format: biochemical; details: covalent; 20 µM E-64 preincubation, 0.2 µM DCG-04, pH 6, 1 mM DTT; leaf extract
T2 construct: gene RD21A; full-length preproprotein agroinfiltrated in Nicotiana benthamiana, two (pRH628) or three (pRH629) extra C-terminal Ser; crude leaf extract; processed in planta to iRD21/mRD21; mRD21 N-termini DELPE, LPE, GDELPE; also endogenous in Arabidopsis leaf extract
T2 sequence (P43297 137-462): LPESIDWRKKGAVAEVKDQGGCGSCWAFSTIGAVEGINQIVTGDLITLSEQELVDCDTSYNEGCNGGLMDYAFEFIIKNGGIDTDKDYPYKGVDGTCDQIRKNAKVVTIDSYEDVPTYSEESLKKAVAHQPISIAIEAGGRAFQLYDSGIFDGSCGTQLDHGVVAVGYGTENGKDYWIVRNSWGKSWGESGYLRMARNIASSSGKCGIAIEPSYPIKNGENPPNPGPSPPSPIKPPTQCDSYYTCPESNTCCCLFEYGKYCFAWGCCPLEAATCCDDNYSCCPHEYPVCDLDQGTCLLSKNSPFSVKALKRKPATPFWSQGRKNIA

T1 sequence (P43297 137-462 C161A): as the sequence (P43297 137-462) above, with C25A counted along it

CC(C)C[C@H](NC(=O)[C@H]1O[C@@H]1C(=O)O)C(=O)NCCCCNC(=N)N [E-64]
competition of DCG-04 labelling [1]: a weak, E-64-competable biotinylation occurs of iRD21
competition of DCG-04 labelling; protection of rubisco from degradation [2]: the reaction with DCG-04 can be prevented by preincubation with E-64
